{"source": "patent US20240335465A1", "about": "(University of Virginia Patent Foundation, priority 2021, published 2024)", "key": {"[1]": {"system": "hRPE and U2OS-STING cells", "experiment": "EdU incorporation assay", "type": "cell-based, human", "conditions": "18 hours", "from_the_text": "(§1) EdU incorporated cells were detected by confocal microscopy after Click-iT® EdU labeling following the manufacturer's protocol (Click-iT™ EdU Alexa Fluor™ 594 Imaging Kit, Thermo Fisher Cat #C10339)."}, "DDR signaling [2]": {"system": "DDR signaling", "experiment": "DDR signaling immunoblot in STING-reconstituted U2OS cells", "type": "cell-based, human", "conditions": "cGAMP 18 hours", "method": "Generation of U2OS-STING cells: WT U2OS cells were reconstituted with STING by integrating LentiORF-TMEM173 (CCSB-Broad Lentiviral Expression Collection, TMEM173, Cat #ccsbBroad304_05465) via lentiviral transduction of U2OS cells as described above. Exposure to blasticidin (10 μg/ml) for 14 days facilitated the selection of STING integrated cells whose protein over-expression profiles were assessed by immunoblotting."}, "DDR signaling [3]": {"system": "DDR signaling", "experiment": "DDR signaling immunoblot in HEK293 cells", "type": "cell-based, human", "conditions": "HEK293, 4 hours post transfection"}, "[4]": {"system": "one-cell fertilized C57BL/6J embryos", "experiment": "CRISPR/Cas9 mediated gene editing in mouse embryos", "type": "cell-based", "conditions": "Rosa26 locus, 1 fmole/embryo cGAMP", "method": "CRISPR/Cas9 mediated gene editing in mouse embryos: Target sites were selected and gRNAs for these target sites were synthesized via in vitro transcription followed by column clean up and ethanol precipitation purification. One-cell fertilized C57BL/6J embryos were microinjected with a mixture of gRNA (50 ng/μl), ssODN (50 ng/μl, IDT, Table 2), and Cas9 protein (40 ng/μl, PNA Bio). […] Injected embryos were cultured to blastocysts then lysed to isolate genomic DNA. The edited locus (Rosa26) was amplified via PCR, and samples were indexed, pooled and run on a MiSeq Nano 2×250 Reagent Kit. Demultiplexed data was analyzed with CRISPResso (Pinello et al., 2016). Reads ambiguously categorized as “HDR/NHEJ” were manually sorted using a window 30 bp wide flanking the cut site, where reads identical to the expected HDR sequence were recategorized accordingly. Samples with fewer than 100 reads were excluded from analysis."}, "U2OS-STING cells": {"system": "U2OS-STING cells", "experiment": "RAD51 and RPA70 foci in EdU+ U2OS-STING cells", "type": "cell-based, human", "conditions": "EdU-positive S-phase cells, Camptothecin 5 μM 16 hours", "method": "Immunofluorescence Staining: 16,500 adherent cells/cm^2 were plated on a gelatin coated 8-chamber slide (VWR, Catalogue #62407-296) and treated as indicated. Media was removed and cells were washed with 1×PBS with Ca^2+/Mg^2+ and fixed with 4% PFA for 20 minutes. Fixed cells were permeabilized with PBS+0.1% Triton-X and washed 3 times with PBS+0.1% Tween20. After treatment as indicated, non-adherent THP1 cells were collected by centrifugation, washed in cold PBS and fixed in PFA. Post-fixation, they were washed with PBS, spotted on gelatin coated “PTFE” Printed Slides (Electron Microscopy Sciences, Cat #63424-06), and air-dried. For γH2AX staining, permeabilized cells were blocked in Serum-free DAKO Protein Block (Agilent, Catalogue #X0909) for 1 hr at room temperature. Cells were incubated in primary antibody (γH2AX, 1:500; anti-HA, 1:100; Table 1) in DAKO antibody diluent at 4° C. overnight on a rocker platform. […]\nas §1"}, "PARylation": {"system": "PARylation", "experiment": "PolyADP-ribosylation (PARylation) immunoblot", "type": "cell-based, human", "from_the_text": "Cells were collected by centrifugation, washed once with ice-cold PBS, lysed in RIPA buffer and analyzed by western blot to detect PARylation using pADPr Antibody (Santa Cruz sc-56198)."}, "PARP": {"system": "PARP", "experiment": "PARP activity assay", "type": "cell-based, human", "method": "Post cGAMP treatment, cells were collected by centrifugation and washed with cold PBS once and resuspended in Cell Extraction Buffer. PARP activity was measured using the Chemiluminescent Assay Kit (R&D, Catalog Number: 4685-096-K) following manufacturer's protocol."}, "PARP1, PARP2, Tankyrase": {"system": "PARP1, PARP2, Tankyrase", "experiment": "PARP1, PARP2, Tankyrase abundance immunoblot", "type": "cell-based, human"}, "Nematostella vectensis": {"system": "Nematostella vectensis", "experiment": "DDR in starlet sea anemones", "type": "in vivo", "conditions": "whole animals; cGAMP in digitonin solution 10 minutes; doxorubicin 2 μM; 16 hours", "from_the_text": "Starlet sea anemones: Wild type, laboratory maintained, Self-sustaining Nematostella vectensis culture containing of 3-6 months old male and female animals (Putnam et al., 2007) was a kind gift from Timothy J. Jegla (Penn State University Department of Biology). They were maintained in 6-well plates containing water with Instant Ocean® Aquarium Sea Salt (50 gm/l) and fed brine shrimp. […] Permeabilization solution was removed and the animals returned to maintenance sea salt water. Doxorubicin was added to the maintenance sea salt water to a final concentration of 2 μM. 16 hours post treatment. N. vectensis were collected and washed once with cold PBS before the addition of 200 μl RIPA buffer. Samples were homogenized by sonication and centrifuged at 4° C. to remove debris. Soluble lysates were quantified for protein analysis by western blot."}, "DDR signaling [5]": {"system": "DDR signaling", "experiment": "DDR signaling immunoblotting in primary mouse embryonic fibroblasts"}}}
{"smiles": "Nc1nc2c(ncn2[C@@H]2O[C@@H]3COP(=O)(O)O[C@H]4[C@@H](O)[C@H](n5cnc6c(N)ncnc65)O[C@@H]4COP(=O)(O)O[C@@H]2[C@@H]3O)c(=O)[nH]1", "note": "[cGAMP, cyclic guanosine monophosphate-adenosine monophosphate]", "values": [{"measurement": "EdU-positive cells", "setting": "[1]", "result": "diminished count of hRPE and STING-U2OS EdU-positive cells"}, {"measurement": "DDR signaling (γH2AX, pCHK2)", "setting": "DDR signaling [2]", "result": "exhibiting biochemical evidence of DDR signaling"}, {"measurement": "phosphorylation status of H2AX, STING, and STAT2", "setting": "DDR signaling [3]", "result": "respond normally to cGAMP stimulation"}, {"measurement": "CRISPR/Cas9-mediated HDR editing", "setting": "[4]", "result": "significantly diminished"}, {"measurement": "non-homologous end joining (NHEJ)", "setting": "[4]", "result": "unaffected"}, {"measurement": "total editing frequency", "setting": "[4]", "result": "unaffected"}, {"measurement": "DNA damage-induced RAD51 and RPA foci formation", "setting": "U2OS-STING cells", "result": "suppressed DNA damage-induced RAD51 and RPA foci formation in EdU-positive S-phase cells"}, {"measurement": "cGAMP-induced suppression of protein PARylation in ATM-inhibited cells", "setting": "PARylation; 25 μM KU-55933", "result": "proceeded normally in ATM-inhibited cells"}, {"measurement": "total cellular level of protein PARylation", "setting": "PARylation; WT THP1, H2O2 or doxorubicin", "result": "substantially reduced total cellular level of protein PARylation"}, {"measurement": "PARP1 PARylation", "setting": "PARylation; WT THP1, cGAMP 6 hours, H2O2 10 minutes, anti-PARP1 IP", "result": "notably reduced"}, {"measurement": "STING requirement for cGAMP-induced suppression of protein PARylation", "setting": "PARylation; WT and STING−/− THP1, 250 μM H2O2 10 minutes", "result": "STING was required"}, {"measurement": "PARP enzymatic activity in cell lysates", "setting": "PARP; THP1, cGAMP 6 hours, Rucaparib 10 μM, 6 hr", "result": "reduction in the PARP enzymatic activity"}, {"measurement": "STING dependence of cGAMP-induced reduction in PARP enzymatic activity", "setting": "PARP; WT and STING−/− THP1", "result": "dependent on STING"}, {"measurement": "abundance of PARP1", "setting": "PARP1, PARP2, Tankyrase; THP1 and HEK293 cells", "result": "significantly augmented"}, {"measurement": "abundance of PARP1, PARP2, Tankyrase", "setting": "PARP1, PARP2, Tankyrase; cGAMP-stimulated cells", "result": "no decrease in the abundance of PARP1, PARP2, or Tankyrase"}, {"measurement": "TBK1 phosphorylation (pTBK1)", "setting": "Nematostella vectensis", "result": "TBK1 phosphorylation"}, {"measurement": "γH2AX", "setting": "Nematostella vectensis", "result": "elevated levels of γH2AX"}, {"measurement": "cGAMP-induced H2AX phosphorylation", "setting": "DDR signaling [5]; Ifnar1−/− or Stat2−/− primary MEFs", "result": "unimpaired"}, {"measurement": "activation of DDR marker γH2AX", "setting": "DDR signaling [5]; Irf3−/− primary MEFs, 16 hours", "result": "proceeded normally"}, {"measurement": "activation of DDR by cGAMP (γH2AX)", "setting": "DDR signaling [5]; Sting−/− primary MEFs, 16 hours", "result": "abrogated by the deletion of STING"}, {"measurement": "DDR activation (γH2AX)", "setting": "DDR signaling [5]; WT primary MEF, Pam3CSK4 500 ng/ml 6 hours, HT-DNA 4 ug/6-well 6 hours, 5′ppp-dsRNA 0.5 μg/6 well 6 hours, cGAMP 16 hours", "result": "activated the DDR"}]}
